According to patent publication US20230242582A1, “NOVEL ALPHA-HELICAL DOUBLE-SIDED CELL PENETRATING PEPTIDE AND USE THEREOF” (CAMP THERAPEUTICS INC., priority 2020, published 2023):
Like-named read-outs stand apart in the source and are kept apart here. Residues, ends and D or L forms follow the SMILES beside them.

Key:
[1] = Intracellular delivery of CsA with fluorescence by non-covalent bonding with peptide; format: cell-based; settings: FIG. 8
Source text: For the peptides with various compositions of lysine and arginine, their intracellular delivery by non-covalent bonding with CsA was identified using CsA with fluorescence.

HeLa cells [2] = assay: Cell-penetrating ability of fluorescently labeled dimeric peptides, flow cytometry; format: cell-based, human; settings: at 62.5 nM, FIG. 6A
Experimental: During preparation of CPPs in dimeric form shown in Tables 1 to 3, one monomer thereof was prepared in a form where 5-TAMRA fluorescence was attached to the N-terminus, instead of acetyl. A monomer with acetyl and a monomer with 5-TAMRA fluorescence were mixed in a molar ratio of 1:1, and subjected to an oxidation condition in air to produce a dimeric form in which only one fluorescence was labeled per dimer molecule. Then, cell-penetrating ability of each dimer was identified. Each fluorescently labeled peptide was used to treat HeLa cells (5×10^4 cells/well), which are human-derived cells, and a ratio of the number of cells with fluorescence to the total number of cells was obtained through flow cytometry.
FIGS. 4B to 4D illustrate results obtained by treating cells with respective dimers at the same concentration (62.5 nM), measuring fluorescence intensity of the cells by flow cytometry, and relatively comparing the fluorescence intensity.
Based on cell-penetrating ability and cytotoxicity of the dimeric peptides of the present disclosure, correlation therebetween was identified. Cytotoxicity (IC50^−1) and cell-penetrating ability of the respective peptides were identified at 62.5 nM according to the methods described in Examples 5 and 6, and then graphically represented.

IL-2 = assay: Decrease of extracellularly secreted IL-2 in Jurkat cells, ELISA; format: cell-based; settings: CsA complex with diLR10 versus CsA only
Experimental: The hydrophobic drug cyclosporine (CsA) was mixed with a peptide and incubated at room temperature for 20 minutes to create a complex with the hydrophobic drug. Then, Jurkat cells (1.0×10^4 cells/well) were treated with the complex for 4.5 hours. An amount of extracellularly secreted IL-2 was measured by an ELISA method to identify, through IC50 values, whether an anti-inflammatory effect caused by CsA, which corresponded to a relative decrease in IL-2, was enhanced by the cell-penetrating peptide diLR10.

HeLa cells [3] = assay: Cytotoxicity of dimeric peptides, WST-1 assay; format: cell-based, human; settings: for ratio: IC50 relative to LK-3, HeLa cells
Experimental: Cytotoxicity was identified using WST-1 assay by treating HeLa cells with peptides in a 96-well plate (1×10^4 cells/well) for 24 hours.
(§1) Specifically, HeLa cells were cultured in DMEM at a condition of 37° C. with 5% CO2. The cells were respectively cultured in a cell culture plate, and then removed with trypsin. The cells were seeded at 1×10^4 cells per well in a 96-well plate. After 24 hours, the peptide was added to the media, and culture was performed again at a condition of 37° C. with 5% CO2 for 24 hours. 10 uL of WST-1 reagent was added per well, and reaction was allowed to proceed for 30 minutes at a condition of 37° C. with 5% CO2. Then, UV absorbance was measured at 450/700 nm with a 96-well plate reader.

MDA-MB-231 cells = assay: Cytotoxicity of MTX-bound peptide, WST-1 assay; format: cell-based
Experimental: as §1
In order to identify a drug delivery effect of a peptide, a peptide in which methotrexate (MTX) is bound to the N-terminus of one monomer of a dimer was synthesized according to a known method (Kim et al. Biomacromolecules 2016).
MDA-MB-231 cells were seeded in a 96-well plate at a density of 2.5×10^3 cells/well, and treated with the MTX-bound peptide for 48 hours starting from the next day.

MDA-MB-231 = assay: IC50 of MTX in cell line MDA-MB-231; format: cell-based; settings: Homo sapiens
HeLa = assay: IC50 of MTX in cell line HeLa; format: cell-based; settings: Homo sapiens
NIH-3T3 = assay: IC50 of MTX in cell line NIH-3T3; format: cell-based; settings: Mus musculus, NIH3T3

In the case of “diLR10^R3K: dimer of monomer LR10^R3K, Ac-LCKLLRRLCR-NH2 (SEQ ID NO 30) (also: dimer of two monomers linked by interchain disulfide bonds)”, the “intracellular delivery ability for CsA” value [1] is reported as “best intracellular delivery ability for CsA”.

In the case of `CC(=O)N[C@@H](CC(C)C)C(=O)N[C@H]1CSSC[C@@H](C(=O)N[C@@H](CCCNC(=N)N)C(N)=O)NC(=O)[C@H](CC(C)C)NC(=O)[C@H](CCCNC(=N)N)NC(=O)[C@H](CCCNC(=N)N)NC(=O)[C@H](CC(C)C)NC(=O)[C@H](CC(C)C)NC(=O)[C@H](CCCNC(=N)N)NC(=O)[C@@H](NC(=O)[C@H](CC(C)C)NC(C)=O)CSSC[C@@H](C(=O)N[C@@H](CCCNC(=N)N)C(N)=O)NC(=O)[C@H](CC(C)C)NC(=O)[C@H](CCCNC(=N)N)NC(=O)[C@H](CCCNC(=N)N)NC(=O)[C@H](CC(C)C)NC(=O)[C@H](CC(C)C)NC(=O)[C@H](CCCNC(=N)N)NC1=O` [diLR10] (HELM PEPTIDE1{[ac].L.C.R.L.L.R.R.L.C.R.[am]}|PEPTIDE2{[ac].L.C.R.L.L.R.R.L.C.R.[am]}$PEPTIDE1,PEPTIDE2,3:R3-10:R3|PEPTIDE1,PEPTIDE2,10:R3-3:R3$$$V2.0; bridges inferred), the “ratio of cell-penetrating ability to cytotoxicity (IC50^−1)” value (“ratio of cell-penetrating ability” for short) (HeLa cells [2]) is reported as “low toxicity as compared with cell-penetrating ability”, the “decrease of IC50 value” (IL-2) is reported as 21% and the “increase in IC50 value as compared with LK-3” value (HeLa cells [3]; HeLa cells) is reported as “about 5 fold”. The ratio (HeLa cells [3]) was 4.26.

For `CC(=O)N[C@@H](Cc1ccccc1)C(=O)N[C@H]1CSSC[C@@H](C(=O)N[C@@H](CCCNC(=N)N)C(N)=O)NC(=O)[C@H](Cc2ccccc2)NC(=O)[C@H](CCCNC(=N)N)NC(=O)[C@H](CCCNC(=N)N)NC(=O)[C@H](Cc2ccccc2)NC(=O)[C@H](Cc2ccccc2)NC(=O)[C@H](CCCNC(=N)N)NC(=O)[C@@H](NC(=O)[C@H](Cc2ccccc2)NC(C)=O)CSSC[C@@H](C(=O)N[C@@H](CCCNC(=N)N)C(N)=O)NC(=O)[C@H](Cc2ccccc2)NC(=O)[C@H](CCCNC(=N)N)NC(=O)[C@H](CCCNC(=N)N)NC(=O)[C@H](Cc2ccccc2)NC(=O)[C@H](Cc2ccccc2)NC(=O)[C@H](CCCNC(=N)N)NC1=O` [diFR10] (HELM PEPTIDE1{[ac].F.C.R.F.F.R.R.F.C.R.[am]}|PEPTIDE2{[ac].F.C.R.F.F.R.R.F.C.R.[am]}$PEPTIDE1,PEPTIDE2,3:R3-10:R3|PEPTIDE1,PEPTIDE2,10:R3-3:R3$$$V2.0; bridges inferred), the “ratio of cell-penetrating ability” value (HeLa cells [2]) was “low toxicity as compared with cell-penetrating ability” and the ratio (HeLa cells [3]) was 4.10.

In the case of `CC[C@H](C)[C@H](NC(C)=O)C(=O)N[C@H]1CSSC[C@@H](C(=O)N[C@@H](CCCNC(=N)N)C(N)=O)NC(=O)[C@H]([C@@H](C)CC)NC(=O)[C@H](CCCNC(=N)N)NC(=O)[C@H](CCCNC(=N)N)NC(=O)[C@H]([C@@H](C)CC)NC(=O)[C@H]([C@@H](C)CC)NC(=O)[C@H](CCCNC(=N)N)NC(=O)[C@@H](NC(=O)[C@@H](NC(C)=O)[C@@H](C)CC)CSSC[C@@H](C(=O)N[C@@H](CCCNC(=N)N)C(N)=O)NC(=O)[C@H]([C@@H](C)CC)NC(=O)[C@H](CCCNC(=N)N)NC(=O)[C@H](CCCNC(=N)N)NC(=O)[C@H]([C@@H](C)CC)NC(=O)[C@H]([C@@H](C)CC)NC(=O)[C@H](CCCNC(=N)N)NC1=O` [diIR10] (HELM PEPTIDE1{[ac].I.C.R.I.I.R.R.I.C.R.[am]}|PEPTIDE2{[ac].I.C.R.I.I.R.R.I.C.R.[am]}$PEPTIDE1,PEPTIDE2,3:R3-10:R3|PEPTIDE1,PEPTIDE2,10:R3-3:R3$$$V2.0; bridges inferred), the “ratio of cell-penetrating ability” value (HeLa cells [2]) is reported as “low toxicity as compared with cell-penetrating ability” and the ratio (HeLa cells [3]) is reported as 3.24.

For `CC(=O)N[C@@H](CC(C)C)C(=O)N[C@H]1CSSC[C@@H](C(=O)N[C@@H](CCCCN)C(N)=O)NC(=O)[C@H](CC(C)C)NC(=O)[C@H](CCCCN)NC(=O)[C@H](CCCCN)NC(=O)[C@H](CC(C)C)NC(=O)[C@H](CC(C)C)NC(=O)[C@H](CCCCN)NC(=O)[C@@H](NC(=O)[C@H](CC(C)C)NC(C)=O)CSSC[C@@H](C(=O)N[C@@H](CCCCN)C(N)=O)NC(=O)[C@H](CC(C)C)NC(=O)[C@H](CCCCN)NC(=O)[C@H](CCCCN)NC(=O)[C@H](CC(C)C)NC(=O)[C@H](CC(C)C)NC(=O)[C@H](CCCCN)NC1=O` [diLK10] (HELM PEPTIDE1{[ac].L.C.K.L.L.K.K.L.C.K.[am]}|PEPTIDE2{[ac].L.C.K.L.L.K.K.L.C.K.[am]}$PEPTIDE1,PEPTIDE2,3:R3-10:R3|PEPTIDE1,PEPTIDE2,10:R3-3:R3$$$V2.0), the IC50 (MDA-MB-231 cells; 48 hours, MTX bound to N-terminus of one monomer of the dimer, MTX column = MTX alone, read-out: IC50 of MTX-bound peptide) was 45.9 nM, the IC50 (MDA-MB-231 cells; peptide itself, without MTX, read-out: IC50) was ~13700 nM and the IC50 (HeLa cells [3]; HeLa cells, WST-1, peptide treatment 24 hours) was 12400 nM. It also gave a ratio (HeLa cells [3]) of 2.79.

With `CN(Cc1cnc2nc(N)nc(N)c2n1)c1ccc(C(=O)N[C@@H](CCC(=O)O)C(=O)O)cc1` [MTX, methotrexate] the IC50 (MDA-MB-231 cells; Homo sapiens, 48 hours, MTX bound to N-terminus of one monomer of the dimer, MTX column = MTX alone, read-out: IC50 of MTX-bound peptide) was 972 nM, the IC50 (MDA-MB-231) was 970 nM and the IC50 (HeLa) was ~31 nM. For the same compound, the IC50 (NIH-3T3) was 37 nM.
